# Key:
# [1] = test system: human colorectal adenocarcinoma cell line (HT-29); experiment: MTT cell viability assay, HT-29; type: cell-based; conditions: Homo sapiens, HT-29, 48 h, read-out: Cytotoxicity (IC50) HT-29, MTT, 48 h; human colorectal adenocarcinoma cell line
# Method: (§1) Cell viability assay: The cell viability was determined by the standard MTT assay method. Briefly, Panc-1, HCT-116, A549, PC3, MIAPaca-2, HT-29, MDA-MB-231, MCF7 cells, and fR2cells were seeded in 96 well tissue culture plates (Nunc) at a density of 4×10^3 cells per well and treated with varying concentrations of the test compounds in triplicates. DMSO was taken as a vehicle, and its final concentration was maintained at 0.2% in the culture medium. Doxorubicin was employed as a positive control. After 44 h of incubation, MTT dye solution was added into the medium, and cells were incubated for another 4 h at 37° C. in 5% CO2. The amount of colored formazan derivatives formed was measured by taking optical density (OD) using a microplate reader (TECAN, Infinite M200 Pro) at 570 nm, and the percentage of cell viability was calculated. The IC50 values were calculated using GraphPad Prism software (Version 5.0).
# [2] = MTT cell viability assay, fR2 normal epithelial cells; type: cell-based, human; conditions: human, fR2 normal epithelial cells; MTT, 48 h; normal epithelial cell line; read-out: Cytotoxicity (IC50) fR2
# Method: as §1
# fR2 cells = experiment: as above; type: cell-based, human; conditions: in vitro
# Method: as §1
# MDA-MB-231 cells = experiment: MTT cell viability assay, MDA-MB-231; type: cell-based; conditions: Homo sapiens, aggressive breast cancer cell line of mesenchymal origin
# Method: as §1
# Now to study its anti-migratory and anti-metastatic role in another highly metastatic cancer cells of breast origin (MDA-MB 231) the IC50 value was determined by performing MTT assay (FIG. 6a).
# MIAPaCa-2 cells [3] = experiment: Cell scatter assay; type: cell-based, human; conditions: MIAPaCa-2, 1, 2, 3 μM, 36 h, compared to vehicle and parent molecule
# Method: Cell scatter assay MIAPaCa-2 cells were seeded onto a 12 well plate at a seeding density of 500 cells/well and kept for 4-5 days, and there was the formation of scatter colonies since the cell line itself is a metastatic cell line. Accordingly, they were treated with 1 μM, 2 μM & 3 μM of compound 2, 2a, 2b, 3, 3a, 4, 4a & 4b for 36 h, and upon termination, they were washed with PBS and observed under an inverted microscope at 20× magnification (FIG. 3).
# MIAPaCa-2 cells [4] = experiment: Wound healing assay; type: cell-based, human; conditions: MIAPaCa-2, 1, 2 and 3 μM, 36 h, compared to 2, 2b, 4, 4a, 4b
# Method: Wound healing assay. MIAPaCa-2 cells (1×10^6) were seeded onto 6 well plates and grown up to more than 90% confluency, and wounds were created with sterile pipette tip (20-200 μL), and the media was replaced with serum-free media. Subsequently, the cells were treated with vehicle (DMSO), compounds 3 μM of 2 and 4, and their derivatives, i.e., 1, 2 and 3 μM of 2a, 2b, 4a, 4b for 36 h. Upon termination, the cells were washed with PBS, and images were captured under a microscope at 20× magnification (FIG. 4).
# [5] = test system: 4T1 mouse mammary carcinoma cells; experiment: 4T1 allograft breast cancer model, anti-tumor and anti-metastatic efficacy; type: in vivo
# Method: In vivo anti-metastatic and anti-tumor efficacy studies. 4T1 mouse mammary carcinoma cells is a highly aggressive cell line that forms tumors when grafted in Balb/c mice. […] All the in vivo experimental protocols were approved by the Institutional Animal Ethics Committee, CPCSEA, of the Indian Institute of Integrative Medicine, Jammu. The animals were maintained at 22° C. with a 12 h light-dark cycle and free access to feed and water inside the institutional animal house. Proper care was taken to maintain them in a healthy condition and to avoid any risk of possible pathogenic contaminations. For subcutaneous implantation of 4T1 cells, the Balb/c mice were distributed into four groups bearing five mice in each group. For tumor induction, 1.5 million 4T1 cells were suspended in serum-free media and injected into the mammary pad of the animal and kept in the animal house for tumor induction. After the tumor reached an adequate size (30-150 mm^3) the mice in the allotted groups were treated with vehicle (normal saline), 15 and 30 mg/kg 2a & 30 mg/kg DIM (positive control) for every alternate day and was continued for two weeks. After the treatment, the mice were sacrificed by cervical dislocation, and the tumor was dissected out from the mammary pad, the tumor volume was measured, and images were taken. Subsequently, to examine the anti-metastatic property of the compound 2a, the chest cavity was dissected to remove the lungs, and after washing with PBS, the metastatic nodules in the lung due to 4T1 migration were checked and subsequently counted.
# The anti-proliferative as well as anti-metastatic role of compound 2a was studied in 4T1 allograft breast cancer model. Briefly, 1.5×10^6 4T1 mammary breast cancer cells were injected in mouse mammary pad and kept undisturbed until the formation of tumor. Subsequently, the mice were treated with 15 and 30 mg/kg of compound 2a along with a positive control 30 mg/kg di-indoyl methane (DIM) molecule and normal saline as vehicle. The drugs were administered intraperitonially for each alternate day for 2 weeks. The animals were sacrificed and tumours were harvested from the mammary pad and tumor weight was measured (FIG. 7a & b). Moreover, the lungs were also removed and photographed to study the presence of metastatic patches. […] Furthermore, the tumors were subjected to tissue lysis and immunoblot analysis was performed to study the expression of Snail-1. Twist-1, STAT-3, Vimentin and E-cadherin.
# [6] = tumor lysate immunoblot, 30 mg/kg
smiles,measurement,setting,value
"CCCCCc1cc(O[C@@H]2OC(CO)[C@@H](O)C(O)C2O)c2c(c1)OC(C)(C)[C@@H]1CCC(C)=C[C@@H]21 (stereo partly drawn) [Compound 2a, Δ^9-tetrahydrocannabinol-1-O-β-D-glucopyranoside]",IC50,[1],3.16 µM
same,IC50 at 48 h,[2],> 100 µM
same,toxicity towards normal human breast epithelial cells,fR2 cells,non-toxic
same,IC50,MDA-MB-231 cells,1.42 µM
same,cell scattering,MIAPaCa-2 cells [3],typical clumping of scatter cells
same,anti-migratory properties in wound healing assay,MIAPaCa-2 cells [4],most prominent anti-migratory properties
same,metastatic white patches on lungs,"[5]; Balb/c mice, 4T1, 15 & 30 mg/kg intraperitoneal, alternate day for 2 weeks",white patches were not observed
same,tumor weight,"[5]; Balb/c mice, 4T1, 15 and 30 mg/kg intraperitoneal, alternate day for 2 weeks, vs normal saline",drastically reduced
same,tumor E-cadherin level,[5]; [6],increased considerably
same,tumor expression of Twist-1,[5]; [6],curbed
same,"tumor expression of Snail-1, STAT-3 and Vimentin","[5]; tumor lysate immunoblot, 15 and 30 mg/kg",decreases significantly
